Test results from patent US12492202B2, “Macrocyclic PAD4 inhibitors useful as immunosuppressant” (BRISTOL-MYERS SQUIBB COMPANY, priority 2020, dated 2025).

These molecules were tested against human PAD4 (hPAD4) (Homo sapiens (Human), UniProt Q9UM07) (assay: RFMS Human PAD4 Functional Assay). Conditions: rapid-fire mass spectrum (RFMS) assay; 5 nM hPAD4 enzyme, 250 μM BAEE, 30 min preincubation at 37° C.
Assay type: biochemical
Experimental: RFMS Human PAD4 Functional Assay: Compounds were solubilized in 100% DMSO to achieve a 10 mM compound concentration. Compound stock solutions were stored at RT. A series of dilutions were prepared in DMSO and mixed 8 times with 20 μL mixing volume. Final top concentration of compound in the assay is 50 μM. Final assay conditions were as follows: • Reaction volume: 26 μl • Assay buffer: 25 mM hepes, pH 7.5, 5 mM NaCl, 1 mM DTT, 0.2 mg/ml BSA, 0.01% CHAPS, 50 μM Calcium, and 5 μM TPEN • Final concentrations: 5 nM hPAD4 enzyme, 250 μM BAEE, and 0.5% DMSO • Total incubation time: 30 mins compound and enzyme preincubation at 37° C., 90 min enzyme/substrate reaction, 30 min reaction with phenyl glyoxal at 37° C. • Stop solution: 40 μl 5% TCA in ACN 0.13 μL of compound solution was added to 13 μL of 10 nM PAD4 in assay buffer. After 30 min 13 μl of 500 μM of BAEE was added in 25 mM hepes, pH 7.5, 5 mM NaCl, 1 mM DTT, 0.2 mg/ml BSA, 0.01% CHAPS, 50 μM Calcium, 5 μM TPEN was added and the reaction incubated for 90 min at 37° C. The enzymatic reaction was quenched by addition of 15 μl of 6.1N TCA, 100% Final Concentration is 20%, 35 μl of 8.5 mM phenyl glyoxal (final concentration 4 mM) is then added and the reaction is incubated for 30 min at 37° C. After 30 minutes the plates are spun down to remove all precipitate. The enzyme reaction was quenched with an equal volume of methanol containing internal standard (modified citrulline). Samples were loaded onto the Rapid Fire RF300 system (Agilent) wherein they were first sipped for 1000 ms and then directly loaded to a C18 separations cartridge using a mixture of acetonitrile containing 0.01% formic acid for 3000 ms desalting. The flow rate of the mobile phase was 1.5 ml/min. Once the samples were eluted from the cartridge, a mobile phase of acetonitrile containing 0.01% formic acid was used to move the samples into the mass spectrometer for 4000 ms at a flow rate of 1.25 ml/min/Sciex API5500 triple quadrupole mass spectrometer (Applied Biosystems) equipped with ESI was used to analyze the peptidyl citrulline and internal standard ions. MRM transition of product and internal standard were monitored at m/z 424.5 to 350.4 and m/z 293 to 247 respectively. The dwell time for each transition was set at 200 ms, and the ESI voltage was used at 5500 with a source temperature of 400° C. Extracted ion peaks for each transition were integrated using the Rapid Fire Integrator software. Peak area of analyte was normalized with internal standard).

Sequence of human PAD4 (hPAD4) (Q9UM07 whole entry): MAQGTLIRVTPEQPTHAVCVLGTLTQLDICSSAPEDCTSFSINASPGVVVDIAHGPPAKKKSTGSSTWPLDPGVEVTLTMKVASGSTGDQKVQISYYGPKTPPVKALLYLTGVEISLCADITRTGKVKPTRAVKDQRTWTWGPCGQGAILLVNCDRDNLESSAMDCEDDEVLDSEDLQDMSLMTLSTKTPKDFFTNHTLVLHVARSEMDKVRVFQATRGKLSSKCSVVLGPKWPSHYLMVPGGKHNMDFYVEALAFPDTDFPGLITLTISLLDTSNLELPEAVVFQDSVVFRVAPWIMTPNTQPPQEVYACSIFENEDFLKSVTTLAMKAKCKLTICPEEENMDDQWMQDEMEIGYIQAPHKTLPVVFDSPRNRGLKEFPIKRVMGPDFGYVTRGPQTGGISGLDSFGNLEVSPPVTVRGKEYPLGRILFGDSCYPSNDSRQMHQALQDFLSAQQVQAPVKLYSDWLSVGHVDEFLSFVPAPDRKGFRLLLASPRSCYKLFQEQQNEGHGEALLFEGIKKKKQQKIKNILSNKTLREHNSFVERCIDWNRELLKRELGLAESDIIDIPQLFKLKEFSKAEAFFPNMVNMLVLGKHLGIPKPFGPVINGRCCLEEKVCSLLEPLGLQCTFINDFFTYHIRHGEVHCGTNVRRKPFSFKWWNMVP

In order of falling IC50:
1. COc1cc(C(=O)N2C[C@H]3CC[C@@H]2[C@@H]3N)cc2nc3n(c12)Cc1cccc(c1)C1[C@@H](CCCCn2c-3cc3cccnc32)C1(F)F (stereo partly drawn) [Example 44, ((1R,4R,7R)-7-amino-2-azabicyclo[2.2.1]heptan-2-yl)((5^1S,5^2R)-5^3,5^3-difluoro-2^7-methoxy-1H,2^1H-1,2(2,1)-dipyrrolo[2,3-b]pyridina-4(1,3)-benzena-5(1,2)-cyclopropanacyclononaphane-2^5-yl)methanone]  216 nM
2. COc1cc(C(=O)N2C[C@H]3CC[C@@H]2[C@@H]3N)cc2nc3n(c12)Cc1cccc(c1)[C@@H]1CN(C)C[C@@H]1CCCCn1c-3cc2cccnc21 [Example 43, ((1R,4R,7R)-7-amino-2-azabicyclo[2.2.1]heptan-2-yl)((5^3R,5^4R)-2^7-methoxy-5′-methyl-1′H,2^1H-1,2(2,1)-dipyrrolo[2,3-b]pyridina-5(3,4)-pyrrolidina-4(1,3)-benzenacyclononaphane-2^5-yl)methanone]  153 nM
3. ((3R,5R)-3-amino-5- fluoropiperidin-1-yl)((Z)-2^7- methoxy-1^1H,2^1H,4^1H-2(2,1)- benzo[d]imidazola-1(2,1)-indola- 4(4,1)-pyrazolacyclodecaphane- 2^5-yl)methanone [Example 7]  136 nM
4. COc1cc(C(=O)N2C[C@H](N)C[C@@H](F)C2)cc2nc3n(c12)Cc1cccc(c1)-c1ccccc1OCCCn1c-3cc2cccnc21 [Example 33, ((3R,5R)-3-amino-5-fluoropiperidin-1-yl)(2^7-methoxy-1^1H,2^1H-6-oxa-1,2(2,1)-dipyrrolo[2,3-b]pyridina-4(1,3),5(1,2)-dibenzenacyclononaphane-2^5-yl)methanone]  120 nM
5. COc1cc(C(=O)N2C[C@H](N)C[C@@H](F)C2)cc2nc3n(c12)Cc1cccc(c1)/C=C\CCCCn1c-3cc2cccnc21 [Example 51, ((3R,5R)-3-amino-5-fluoropiperidin-1-yl)((Z)-2^7-methoxy-1^1H,2^1H-1,2(2,1)-dipyrrolo[2,3-b]pyridina-4(1,3)-benzenacyclodecaphan-5-en-2^5-yl)methanone]  119 nM
6. COc1cc(C(=O)N2CC3CCC2[C@@H]3N)cc2nc3n(c12)Cc1cc(ccn1)-c1ccccc1CCCCn1c-3cc2cccnc21 (stereo partly drawn) [Example 32, ((1R,4R,7R)-7-amino-2-azabicyclo[2.2.1]heptan-2-yl)(2^7-methoxy-1^1H,2^1H-1,2(2,1)-dipyrrolo[2,3-b]pyridina-4(2,4)-pyridina-5(1,2)-benzenacyclononaphane-2^5-yl)methanone]  112 nM
7. COc1cc(C(=O)N2CC3CCC2[C@@H]3N)cc2nc3n(c12)Cc1cc(C(N)=O)cc(c1)-c1ccccc1CCCCn1c-3cc2cccnc21 (stereo partly drawn) [Example 29, 2^5-((1R,4R,7R)-7-amino-2-azabicyclo[2.2.1]heptane-2-carbonyl)-2^7-methoxy-1^1H,2^1H-1,2(2,1)-dipyrrolo[2,3-b]pyridina-4(1,3),5(1,2)-dibenzenacyclononaphane-4^5-carboxamide]  59 nM
8. COc1cc(C(=O)N2C[C@H]3CC[C@@H]2[C@@H]3N)cc2nc3n(c12)Cc1cccc(c1)CCCCCCn1c-3cc2cccnc21 [Example 42, ((1R,4R,7R)-7-amino-2-azabicyclo[2.2.1]heptan-2-yl)(27-methoxy-11H,21H-1,2(2,1)-dipyrrolo[2,3-b]pyridina-4(1,3)-benzenacyclodecaphane-25-yl)methanone]  49.7 nM
9. COc1cc(C(=O)N2CC3CCC2[C@@H]3N)cc2nc3n(c12)Cc1cccc(c1)-c1ccccc1OCCCn1c-3cc2cccnc21 (stereo partly drawn) [Example 34, ((1R,4R,7R)-7-amino-2-azabicyclo[2.2.1]heptan-2-yl)(2^7-methoxy-1^1H,2^1H-6-oxa-1,2(2,1)-dipyrrolo[2,3-b]pyridina-4(1,3),5(1,2)-dibenzenacyclononaphane-2^5-yl)methanone]  30 nM
10. COc1cc(C(=O)N2C[C@H]3CC[C@@H]2[C@@H]3N)cc2nc3n(c12)CCC(=O)Nc1ccccc1OCCCn1c-3cc2cccnc21 [Example 40, 21-((1R,4R,7R)-7-amino-2-azabicyclo[2.2.1]heptane-2-carbonyl)-19-methoxy-7,8,16,17-tetrahydro-6H-benzo[b]benzo[4,5]imidazo[1,2-h]pyrido[3′,2′:4,5]pyrrolo[2,1-j][1]oxa[4,8,11]triazacyclotetradecin-15(14H)-one]  30 nM
11. ((1R,4R,7R)-7-amino-2-azabicyclo[2.2.1]heptan-2-yl)((cis)-6,7-dihydroxy-2^7-methoxy-1^1H,2^1H-1,2(2,1)-dipyrrolo[2,3-b]pyridina-4(1,3),5(1,2)-dibenzenacyclononaphane-2^5-yl)methanone [Example 39]  26 nM
12. COc1cc(C(=O)N2C[C@H](N)C[C@@H](F)C2)cc2nc3n(c12)Cc1cncc(c1)-c1ccccc1OCCCn1c-3cc2cccnc21 [Example 35, ((3R,5R)-3-amino-5-fluoropiperidin-1-yl)(2^7-methoxy-1^1H,2^1H-6-oxa-1,2(2,1)-dipyrrolo[2,3-b]pyridina-4(3,5)-pyridina-5(1,2)-benzenacyclononaphane-2^5-yl)methanone]  14 nM
13. COc1cc(C(=O)N2C[C@H]3CC[C@@H]2[C@@H]3N)cc2nc3n(c12)Cc1cncc(c1)-c1ccccc1CCCCn1c-3cc2ccc(C(C)(C)O)nc21 [Example 53, ((1R,4R,7R)-7-Amino-2-azabicyclo[2.2.1]heptan-2-yl)(1^6-(2-hydroxypropan-2-yl)-2^7-methoxy-1^1H,2^1H-1,2(2,1)-dipyrrolo[2,3-b]pyridina-4(3,5)-pyridina-5(1,2)-benzenacyclononaphane-2^5-yl)methanone]  14 nM
14. COc1cc(C(=O)N2CC3CCC2[C@@H]3N)cc2nc3n(c12)Cc1cncc(c1)-c1ccccc1CCCCn1c-3cc2cccnc21 (stereo partly drawn) [Example 31, ((1R,4R,7R)-7-amino-2-azabicyclo[2.2.1]heptan-2-yl)(2^7-methoxy-1^1H,2^1H-1,2(2,1)-dipyrrolo[2,3-b]pyridina-4(3,5)-pyridina-5(1,2)-benzenacyclononaphane-2^5-yl)methanone]  10 nM
15. COc1cc(C(=O)N2C[C@H](N)C[C@@H](F)C2)cc2nc3n(c12)Cc1cncc(c1)-c1ccccc1CCCCn1c-3cc2ccc(C(C)(C)O)nc21 [Example 52, ((3R,5R)-3-Amino-5-fluoropiperidin-1-yl)(1^6-(2-hydroxypropan-2-yl)-2^7-methoxy-1^1H,2^1H-1,2(2,1)-dipyrrolo[2,3-b]pyridina-4(3,5)-pyridina-5(1,2)-benzenacyclononaphane-2^5-yl)methanone]  8 nM
16. COc1cc(C(=O)N2CC3CCC2[C@@H]3N)cc2nc3n(c12)Cc1cncc(c1)-c1ccccc1OCCCn1c-3cc2cccnc21 (stereo partly drawn) [Example 36, ((1R,4R,7R)-7-amino-2-azabicyclo[2.2.1]heptan-2-yl)(2^7-methoxy-1^1H,2^1H-6-oxa-1,2(2,1)-dipyrrolo[2,3-b]pyridina-4(3,5)-pyridina-5(1,2)-benzenacyclononaphane-2^5-yl)methanone]  7 nM
17. COc1cc(C(=O)N2C[C@H](N)C[C@@H](F)C2)cc2nc3n(c12)Cc1cncc(c1)-c1ccccc1CCCCn1c-3cc2cccnc21 [Example 30, ((3R,5R)-3-amino-5-fluoropiperidin-1-yl)(2^7-methoxy-1^1H, 2^1H-1,2(2,1)-dipyrrolo[2,3-b]pyridina-4(3,5)-pyridina-5(1,2)-benzenacyclononaphane-2^5-yl)methanone]  4 nM
